Test results from patent US20140128385A1 (NOVARTIS AG, priority 2011, published 2014).
Counter-ions that a name gives are not always drawn.

These compounds were tested against T1, BACE-2 (Homo sapiens, UniProt Q9Y5Z0) (assay: assay for inhibition of BACE-2).
T1 construct: Recombinant BACE-2 (extracellular domain, expressed in baculovirus and purified using standard methods); made in house
T1 sequence (Q9Y5Z0 63-473 limits assumed): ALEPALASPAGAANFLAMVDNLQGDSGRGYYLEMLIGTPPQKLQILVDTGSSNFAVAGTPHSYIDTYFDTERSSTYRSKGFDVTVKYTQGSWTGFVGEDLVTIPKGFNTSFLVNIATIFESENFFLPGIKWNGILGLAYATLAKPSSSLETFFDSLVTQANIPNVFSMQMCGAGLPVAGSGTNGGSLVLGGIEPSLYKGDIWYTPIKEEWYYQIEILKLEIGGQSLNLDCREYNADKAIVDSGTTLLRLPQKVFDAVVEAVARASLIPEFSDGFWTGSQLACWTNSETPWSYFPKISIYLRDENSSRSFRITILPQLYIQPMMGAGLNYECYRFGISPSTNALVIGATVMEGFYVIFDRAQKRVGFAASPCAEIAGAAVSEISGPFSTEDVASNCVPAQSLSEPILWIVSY
Assay type: biochemical

Row | SMILES | IC50
1 | NC1=NC(c2cccc(NC(=O)c3cc(Br)co3)c2)(C(F)F)COC1 (stereo not shown) [Example 102] | 240 nM
2 | NC1=NC(c2cccc(NC(=O)c3ccc(O)nn3)c2)(C(F)F)COC1 (stereo not shown) [Example 103] | > 10000 nM
3 | Cc1nc(C(=O)Nc2cccc(C3(C(F)F)COCC(N)=N3)c2)co1 (stereo not shown) [Example 104] | 309 nM
4 | CCc1nc(C(=O)Nc2cccc(C3(C(F)F)COCC(N)=N3)c2)co1 (stereo not shown) [Example 105] | 1020 nM
5 | Cc1nc(C(=O)Nc2cccc(C3(C(F)F)COCC(N)=N3)c2)c(C)o1 (stereo not shown) [Example 106] | 1040 nM
6 | COc1cc(Br)cnc1C(=O)Nc1cccc(C2(C(F)F)COCC(N)=N2)c1 (stereo not shown) [Example 107] | 133 nM
7 | COCCOc1cnc(C(=O)Nc2cccc(C3(C(F)F)COCC(N)=N3)c2)cn1 (stereo not shown) [Example 109] | > 10000 nM
8 | NC1=NC(c2cccc(NC(=O)c3cnc(C(F)F)cn3)c2)(C(F)F)COC1 (stereo not shown) [Example 110] | 3550 nM
9 | N#Cc1ccc(C(=O)Nc2ccc(F)c([C@]3(C(F)F)COCC(N)=N3)c2)nc1 [Example 112, 5-Cyano-pyridine-2-carboxylic acid [3-((R)-5-amino-3-difluoromethyl-3,6-dihydro-2H-[1,4]oxazin-3-yl)-4-fluoro-phenyl]-amide hydrochloride] | 97 nM
10 | Cc1c(C(=O)Nc2ccc(F)c([C@]3(C(F)F)COCC(N)=N3)c2)oc2ccc(Br)cc12 [Example 114] | 116 nM
11 | CCOc1ccc(C(=O)Nc2ccc(F)c([C@]3(C(F)F)COCC(N)=N3)c2)nc1 [Example 120] | 1060 nM
12 | NC1=N[C@@](c2cc(NC(=O)c3cnc(C(F)F)cn3)ccc2F)(C(F)F)COC1 [Example 122] | 514 nM
13 | NC1=N[C@@](c2cc(NC(=O)c3cnc(OCC(F)F)cn3)ccc2F)(C(F)F)COC1 [Example 123] | 1830 nM
14 | NC1=N[C@@](c2cc(NC(=O)c3cnc(OCC(F)(F)F)cn3)ccc2F)(C(F)F)COC1 [Example 124] | 1630 nM
15 | NC1=N[C@@](c2cc(NC(=O)c3cc(Br)co3)ccc2F)(C(F)F)COC1 [Example 125] | 102 nM
16 | NC1=N[C@@](c2cc(NC(=O)c3cc4ccccn4n3)ccc2F)(C(F)F)COC1 [Example 126] | 550 nM
17 | Cc1nc(C(=O)Nc2ccc(F)c([C@]3(C(F)F)COCC(N)=N3)c2)c(C)o1 [Example 128] | 95 nM
18 | NC1=N[C@@](c2cc(NC(=O)c3cn4ccccc4n3)ccc2F)(C(F)F)COC1 [Example 129] | 1630 nM

Row | SMILES | IC50
19 | NC1=N[C@@](c2cc(NC(=O)c3ccc(C(F)F)cn3)ccc2F)(C(F)F)COC1 [Example 132] | 180 nM
20 | Cn1ccnc1C(=O)Nc1ccc(F)c([C@]2(C(F)F)COCC(N)=N2)c1 [Example 133] | 573 nM
21 | NC1=N[C@@](c2cc(NC(=O)c3ccc(O)nn3)ccc2F)(C(F)F)COC1 [Example 134] | 844 nM
22 | COCCOc1cnc(C(=O)Nc2ccc(F)c([C@]3(C(F)F)COCC(N)=N3)c2)cn1 [Example 135] | 1090 nM
23 | NC1=N[C@@](c2cc(NC(=O)c3cnc(OCCF)cn3)ccc2F)(C(F)F)COC1 [Example 136] | 1140 nM
24 | NC1=N[C@@](c2cc(NC(=O)c3ccc(OC(F)F)cn3)ccc2F)(C(F)F)COC1 [Example 138] | 458 nM
25 | NC1=N[C@@](c2cc(NC(=O)c3ccc(OCF)cn3)ccc2F)(C(F)F)COC1 [Example 139] | 106 nM
26 | Cc1cc(C(=O)Nc2ccc(F)c([C@]3(C(F)F)COCC(N)=N3)c2)n[nH]1 [Example 142] | 522 nM
27 | NC1=N[C@@](c2cc(NC(=O)c3cnc(O)cn3)ccc2F)(C(F)F)COC1 [Example 145] | 697 nM
28 | Cl.[2H]c1nc(C(=O)Nc2ccc(F)c([C@]3(C(F)F)COCC(N)=N3)c2)c(C([2H])([2H])[2H])c([2H])c1C#N [Example 147] | 165 nM
29 | Cc1nc(C(=O)Nc2ccc(F)c([C@]3(C(F)F)COCC(N)=N3)c2)cs1 [Example 148] | 287 nM
30 | Cc1cnc(C(=O)Nc2ccc(F)c([C@]3(C(F)F)COCC(N)=N3)c2)s1 [Example 149] | 476 nM
31 | Cn1cc([N+](=O)[O-])c(C(=O)Nc2ccc(F)c([C@]3(C(F)F)COCC(N)=N3)c2)n1 [Example 151] | 376 nM
32 | CC1(c2cc(NC(=O)c3ncc(C(F)(F)F)cc3Cl)ccc2F)N=C(N)COCC1(F)F (stereo not shown) [Example 154, 3-Chloro-5-trifluoromethyl-pyridine-2-carboxylic acid [3-(3-amino-6,6-difluoro-5-methyl-2,5,6,7-tetrahydro-[1,4]oxazepin-5-yl)-4-fluoro-phenyl]-amide] | 408 nM
33 | NC1=N[C@@](c2cc(NC(=O)c3cc4cncnc4[nH]3)ccc2F)(C(F)F)COC1 [Example 157, 7H-Pyrrolo[2,3-d]pyrimidine-6-carboxylic acid [3-((R)-5-amino-3-difluoromethyl-3,6-dihydro-2H-[1,4]oxazin-3-yl)-4-fluoro-phenyl]-amide hydrochloride] | > 10000 nM
34 | COCCOc1cnc(C(=O)Nc2ccc(F)c([C@]3(C(F)F)COCC(N)=N3)c2)c(N)n1 [Example 158, 3-Amino-5-(2-methoxy-ethoxy)-pyrazine-2-carboxylic acid [3-((R)-5-amino-3-difluoromethyl-3,6-dihydro-2H-[1,4]oxazin-3-yl)-4-fluoro-phenyl]-amide] | 3380 nM
35 | CCc1ccc(C(=O)Nc2ccc(F)c([C@]3(C(F)F)COCC(N)=N3)c2)nc1 [Example 159, hydrochloride] | 119 nM

Compounds with a lower IC50, results first:

Row | IC50 | SMILES
36 | 90 nM | CC1(c2cc(NC(=O)c3ccc(C#N)cn3)ccc2F)N=C(N)COCC1(F)F (stereo not shown) [Example 156, 5-Cyano-pyridine-2-carboxylic acid [3-(3-amino-6,6-difluoro-5 methyl-2,5,6,7-tetrahydro[1,4]oxazepin-5-yl)-4 fluoro-phenyl]-amide]
37 | 67 nM | CCc1nc(C(=O)Nc2ccc(F)c([C@]3(C(F)F)COCC(N)=N3)c2)co1 [Example 131]
38 | 66 nM | Cc1ccc(C(=O)Nc2ccc(F)c([C@]3(C(F)F)COCC(N)=N3)c2)nc1 [Example 143]
39 | 61 nM | Cn1ccc(C(=O)Nc2ccc(F)c([C@]3(C(F)F)COCC(N)=N3)c2)n1 [Example 150]
40 | 51 nM | Cc1cc(C#N)cnc1C(=O)Nc1ccc(F)c([C@]2(C(F)F)COCC(N)=N2)c1 [Example 144]
41 | 43 nM | NC1=N[C@@](c2cc(NC(=O)c3cnc(Cl)cn3)ccc2F)(C(F)F)COC1 [Example 141]
42 | 43 nM | COc1cc(Br)cnc1C(=O)Nc1ccc(F)c(C2(C)N=C(N)COCC2(F)F)c1 (stereo not shown) [Example 155, 5-Bromo-3-methoxy-pyridine-2-carboxylic acid [3-(3-amino-6,6 difluoro-5-methyl-2,5,6,7 tetrahydro-[1,4]oxazepin-5-yl)-4 fluoro-phenyl]-amide]
43 | 42 nM | COc1cc(Br)cnc1C(=O)Nc1ccc(F)c([C@]2(C(F)F)COCC(N)=N2)c1 [Example 130]
44 | 35 nM | Cc1nc(C(=O)Nc2ccc(F)c([C@]3(C(F)F)COCC(N)=N3)c2)co1 [Example 127]
45 | 29 nM | NC1=N[C@@](c2cc(NC(=O)c3ncc(F)cc3F)ccc2F)(C(F)F)COC1 [Example 113]
46 | 26 nM | CC1(c2cc(NC(=O)c3ccc(Br)cn3)ccc2F)N=C(N)COCC1(F)F (stereo not shown) [Example 101]
47 | 24 nM | NC1=NC(c2cccc(NC(=O)c3ncc(Br)cc3O)c2)(C(F)F)COC1 (stereo not shown) [Example 108]
48 | 18 nM | NC1=N[C@@](c2cc(NC(=O)c3ccc(Cl)cn3)ccc2F)(C(F)F)COC1 [Example 137]
49 | 17 nM | CC1(c2cc(NC(=O)c3ccc(Cl)cn3)ccc2F)N=C(N)COCC1(F)F (stereo not shown) [Example 100, N-(3-(3-amino-6,6-difluoro-5-methyl-2,5,6,7-tetrahydro-1,4-oxazepin-5-yl)-4-fluorophenyl)-5-chloropicolinamide]
50 | 15 nM | NC1=N[C@@](c2cc(NC(=O)c3ncc(Cl)cc3F)ccc2F)(C(F)F)COC1 [Example 140]
51 | 14 nM | NC1=N[C@@](c2cc(NC(=O)c3ncc(Br)cc3O)ccc2F)(C(F)F)COC1 [Example 119]
52 | 13 nM | NC1=N[C@@](c2cc(NC(=O)c3ncc(Br)cc3Cl)ccc2F)(C(F)F)COC1 [Example 117]
53 | 11 nM | NC1=N[C@@](c2cc(NC(=O)c3ccc(Br)cn3)ccc2F)(C(F)F)COC1 [Example 118]
54 | 9 nM | Cl.[2H]c1nc(C(=O)Nc2ccc(F)c([C@]3(C(F)F)COCC(N)=N3)c2)c(C([2H])([2H])[2H])c([2H])c1Br [Example 116]
55 | 8 nM | NC1=N[C@@](c2cc(NC(=O)c3ncc(Cl)cc3N)ccc2F)(C(F)F)COC1 [Example 160, 3-Amino-5-chloro-pyridine-2-carboxylic acid [3-((R)-5-amino-3-difluoromethyl-3,6-dihydro-2H-[1,4]oxazin-3-yl)-4-fluoro-phenyl]-amide hydrochloride]
56 | 7 nM | NC1=N[C@@](c2cc(NC(=O)c3ncc(Cl)cc3Cl)ccc2F)(C(F)F)COC1 [Example 111]
57 | 3 nM | Cl.[2H]c1nc(C(=O)Nc2ccc(F)c([C@]3(C(F)F)COCC(N)=N3)c2)c(C([2H])([2H])[2H])c([2H])c1Cl [Example 115]
58 | 3 nM | C[C@@]1(c2cc(NC(=O)c3ncc(Cl)cc3N)ccc2F)CO[C@@](C)(C(F)(F)F)C(N)=N1 [Example 153, 3-Amino-5-chloro-pyridine-2-carboxylic acid [3-((3R,6R)-5-amino-3,6-dimethyl-6-trifluoromethyl-3,6-dihydro-2H-[1,4]oxazin-3-yl)-4-fluoro-phenyl]-amide hydrochloride]
